# Measurements taken from US20260334439A1, “BCAT2 INHIBITORS” (Agios Pharmaceuticals, Inc., priority 2023, published 2026).
# Columns and labels:
# BCAT2 [1] = target: T1, BCAT2 (Homo sapiens, UniProt O15382); assay: BCAT2 in vitro enzyme inhibition assay (hBCAT2, glutamate dehydrogenase/diaphorase/resazurin coupled fluorescence read); format: biochemical; conditions: hBCAT2, 1 h preincubation at 25° C., one hour reaction; average where tested multiple times
# T1 sequence (O15382 28-392): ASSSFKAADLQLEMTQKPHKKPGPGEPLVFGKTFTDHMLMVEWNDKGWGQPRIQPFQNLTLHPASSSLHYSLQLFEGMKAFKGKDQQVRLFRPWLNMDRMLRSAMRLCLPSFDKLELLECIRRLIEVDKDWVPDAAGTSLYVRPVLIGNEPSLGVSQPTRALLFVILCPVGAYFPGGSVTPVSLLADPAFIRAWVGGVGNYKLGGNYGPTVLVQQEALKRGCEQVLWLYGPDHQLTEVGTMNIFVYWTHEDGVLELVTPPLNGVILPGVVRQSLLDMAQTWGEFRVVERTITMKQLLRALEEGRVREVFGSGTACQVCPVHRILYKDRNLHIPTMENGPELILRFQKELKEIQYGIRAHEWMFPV
# Summary of the method: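 Coupled GDH/diaphorase/resazurin fluorescence (Ex 540/Em 590) read after 1 h reaction at 25 °C, SDS-stopped; enzyme (0.33 μg/mL in mix) first preincubated 1 h with compound, 10-point 3-fold series from 100 μM final, Tris pH 8.0 buffer with NaCl, BSA; technical duplicates, averaged across tests.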
# BCAT2 [2] = target: T1, BCAT2; assay: BCAT2 cell inhibition using engineered A549 cells (MUT KO, BCAT1 KO; 13C6-KMV formation by LC-MS/MS); format: cell-based; set-up: expressed endogenous BCAT2; endogenous in cells; host or cells: A549 cells, MUT knockout and BCAT1 knockout
# Text: Endogenous Methylmalonyl-CoA Mutase (MUT) and Branched Chain Aminotransferase 1 (BCAT1) in A549 cells was knocked out by CRISPR/CAS9 using the targeting system from TransOMIC Technologies. The following guide sequence was cloned into pCLIP-ALL-EFS-Blast vector to target human MUT: […] (SEQ ID NO: 35). The following guide sequence was cloned into pCLIP-ALL-EFS-Puro vector to target human BCAT1: […] (SEQ ID NO: 36). The resulting plasmids were co-transfected into 293T cells with VSV-G, P-PEX, and Fugene-6. Lentivirus was harvested and A549 cells were first transduced with lentivirus targeting MUT and polybrene. After genetic selection with blasticidin clonal selection was performed and validated via western blot analysis to confirm MUT was no longer expressed. These MUT KO cells were then transduced with lentivirus targeting BCAT1 and polybrene. After selection with puromycin clonal selection was performed and clones were validated via western blot analysis to confirm BCAT1 was no longer expressed in these cells. The result was an engineered A549 cell line that expressed endogenous BCAT2.
# For KMV cell assays, on day 1, 25,000 cells/100 μL EMEM (10% FBS) were seeded in each well of a 96-well plate. On day 2, medium was replaced with 50 μL fresh EMEM (10% dialyzed FBS) containing 2× the assay concentration of experimental compound. After 15 minutes, 50 μL of 800 uM ^15N,^13C6-Isoleucine in EMEM (10% dialyzed FBS) was added to each well and incubated for 24 hours. On day 3, 50 μL of media from each well was collected and transferred to another 96-well plate for ^13C6-3-Methyl-2-Oxopentanoic Acid (KMV) analysis via LC-MS/MS. In the remaining assay wells 50 μL of Promega Glo CTG reagent was added and luminescence was measured as a cell viability readout.
# For LC-MS/MS analysis 5 μL of cell assay media from each well was transferred to a 96-well plate and 45 μL of ACN:0.1% NaOH (50:50, v/v)^+0.20 nM d8-KMV was added and mixed on a shaker. 15 μL was transferred to a new 96-well plate and 15 μL of 10 mg/mL PFBHA solution was added and mixed on the shaker. The reaction was placed on ice for 30 minutes and quenched with 10 μL of ACN: Acetone (50:50, v/v) on a shaker. The resulting mixture was diluted with 100 μL of ACN:0.1% NaOH (50:50, v/v) on a shaker. 10 μL of sample were injected on the Shimadzu 20AD LC-MS/MS to quantify ^13C6-KMV.
# Where a compound was tested multiple times, the average value of the tests is reported.
SMILES,IC50 (BCAT2 [1]) [nM],IC50 (BCAT2 [2]) [nM],"IC50 (BCAT2 [2]; read-out: BCAT2 Cell Inhibition (IC50), engineered A549 cells, 24 hours, 13C6-KMV in media, average where tested multiple times) [nM]"
"O=C1c2cc(F)ccc2CN1[C@H]1CCC[C@@H](n2c(-c3ccccc3F)nc3cnc(-c4nc[nH]n4)cc32)[C@@H]1O [Example 184, 6-fluoro-2-((1S,2S,3R)-3-(2-(2-fluorophenyl)-6-(1H-1,2,4-triazol-3-yl)-1H-imidazo[4,5-c]pyridin-1-yl)-2-hydroxycyclohexyl)isoindolin-1-one]",< 100,< 100,
"O=C(N[C@H]1CCC[C@@H](n2c(-c3ccccc3F)nc3cnc(-c4nc[nH]n4)cc32)C1)c1cc(Cl)ccn1 [Example 7, 4-chloro-N-((1S,3R)-3-(2-(2-fluorophenyl)-6-(1H-1,2,4-triazol-3-yl)-1H-imidazo[4,5-c]pyridin-1-yl)cyclohexyl)picolinamide]",< 100,< 100,
"O=C(N[C@H]1CCC[C@@H](n2c(-c3ccccc3F)nc3cnc(-c4nc[nH]n4)cc32)C1)c1cc(Cl)ccc1OCCO [Example 34, 5-chloro-N-((1S,3R)-3-(2-(2-fluorophenyl)-6-(1H-1,2,4-triazol-3-yl)-1H-imidazo[4,5-c]pyridin-1-yl)cyclohexyl)-2-(2-hydroxyethoxy)benzamide]",< 100,< 100,
"CC(C)(O)COc1ccc(Cl)cc1C(=O)N[C@H]1CCC[C@@H](n2c(-c3ccccc3F)nc3cnc(-c4nc[nH]n4)cc32)C1 [Example 39, 5-chloro-N-((1S,3R)-3-(2-(2-fluorophenyl)-6-(1H-1,2,4-triazol-3-yl)-1H-imidazo[4,5-c]pyridin-1-yl)cyclohexyl)-2-(2-hydroxy-2-methylpropoxy)benzamide]",< 100,< 100,
"O=C(N[C@H]1CCC[C@@H](n2c(-c3ncccc3F)nc3cnc(-c4nc[nH]n4)cc32)C1)c1cc(F)ccc1F [Example 80, 2,5-difluoro-N-((1S,3R)-3-(2-(3-fluoropyridin-2-yl)-6-(1H-1,2,4-triazol-3-yl)-1H-imidazo[4,5-c]pyridin-1-yl)cyclohexyl)benzamide]",< 100,100 to 500,
"O=C1c2cc(F)ccc2CN1[C@H]1CCC[C@@H](n2c(-c3ccccc3F)nc3cnc(-n4nccn4)cc32)[C@@H]1O [Example 185, 6-fluoro-2-((1S,2S,3R)-3-(2-(2-fluorophenyl)-6-(2H-1,2,3-triazol-2-yl)-1H-imidazo[4,5-c]pyridin-1-yl)-2-hydroxycyclohexyl)isoindolin-1-one]",< 100,< 100,
"O=C1c2cc(F)ccc2CN1[C@H]1CCC[C@@H](n2c(-c3c(F)cccc3F)nc3cnc(-c4ncccn4)cc32)[C@@H]1O [Example 187, 2-((1S,2S,3R)-3-(2-(2,6-difluorophenyl)-6-(pyrimidin-2-yl)-1H-imidazo[4,5-c]pyridin-1-yl)-2-hydroxycyclohexyl)-6-fluoroisoindolin-1-one]",< 100,100 to 500,
"O=C(N[C@H]1CCC[C@@H](n2c(-c3ccccc3F)nc3cnc(-c4nc[nH]n4)cc32)C1)c1ccccc1F [Example 76, 2-fluoro-N-((1S,3R)-3-(2-(2-fluorophenyl)-6-(1H-1,2,4-triazol-3-yl)-1H-imidazo[4,5-c]pyridin-1-yl)cyclohexyl)benzamide]",< 100,< 100,
"O=C(N[C@H]1CCC[C@@H](n2c(-c3ccccc3F)nc3cnc(-c4nc[nH]n4)cc32)C1)c1cc(Cl)ccc1OC(F)(F)F [Example 4, 5-chloro-N-((1S,3R)-3-(2-(2-fluorophenyl)-6-(1H-1,2,4-triazol-3-yl)-1H-imidazo[4,5-c]pyridin-1-yl)cyclohexyl)-2-(trifluoromethoxy)benzamide]",< 100,500 to 1000,
"O=C1c2cc(Cl)ccc2NCN1[C@H]1CCC[C@@H](n2c(-c3ccccc3F)nc3cnc(-c4nc[nH]n4)cc32)C1 [Example 206, 6-chloro-3-((1S,3R)-3-(2-(2-fluorophenyl)-6-(1H-1,2,4-triazol-3-yl)-1H-imidazo[4,5-c]pyridin-1-yl)cyclohexyl)-2,3-dihydroquinazolin-4(1H)-one]",< 100,< 100,
"CCN(C)c1nc2cnc(-c3nc[nH]n3)cc2n1[C@@H]1CCC[C@H](NC(=O)c2cc(Cl)ccn2)C1 [Example 21, 4-chloro-N-((1S,3R)-3-(2-(ethyl(methyl)amino)-6-(1H-1,2,4-triazol-3-yl)-1H-imidazo[4,5-c]pyridin-1-yl)cyclohexyl)picolinamide]",100 to 500,,> 1000
"CO[C@H]1C[C@H](NC(=O)c2cc(Cl)ccn2)C[C@H](n2c(-c3ccccc3F)nc3cnc(-c4nc[nH]n4)cc32)C1 [Example 116, 4-chloro-N-((1R,3S,5S)-3-(2-(2-fluorophenyl)-6-(1H-1,2,4-triazol-3-yl)-1H-imidazo[4,5-c]pyridin-1-yl)-5-methoxycyclohexyl)picolinamide]",< 100,< 100,
"CO[C@H]1C[C@H](NC(=O)c2cc(Cl)ccn2)C[C@H](n2c(CC(C)C)nc3cnc(-c4ncccn4)cc32)C1 [Example 117, 4-chloro-N-((1R,3S,5S)-3-(2-isobutyl-6-(pyrimidin-2-yl)-1H-imidazo[4,5-c]pyridin-1-yl)-5-methoxycyclohexyl)picolinamide]",< 100,500 to 1000,
"CO[C@H]1C[C@H](NC(=O)c2cc(Cl)ccc2OCCO)C[C@H](n2c(-c3ccccc3F)nc3cnc(-c4nc[nH]n4)cc32)C1 [Example 119, 5-chloro-N-((1R,3S,5S)-3-(2-(2-fluorophenyl)-6-(1H-1,2,4-triazol-3-yl)-1H-imidazo[4,5-c]pyridin-1-yl)-5-methoxycyclohexyl)-2-(2-hydroxyethoxy)benzamide]",< 100,< 100,
"O=C(N[C@H]1CCC[C@@H](n2c(-c3ccccc3F)nc3cnc(-c4nc[nH]n4)cc32)C1)c1c(F)cccc1F [Example 74, 2,6-difluoro-N-((1S,3R)-3-(2-(2-fluorophenyl)-6-(1H-1,2,4-triazol-3-yl)-1H-imidazo[4,5-c]pyridin-1-yl)cyclohexyl)benzamide]",< 100,100 to 500,
"O=C1c2cc(F)ccc2CN1[C@H]1CCC[C@@H](n2c(-c3ccccc3F)nc3cnc(-c4ncccc4F)cc32)[C@@H]1O [Example 190, 6-fluoro-2-((1S,2S,3R)-3-(2-(2-fluorophenyl)-6-(3-fluoropyridin-2-yl)-1H-imidazo[4,5-c]pyridin-1-yl)-2-hydroxycyclohexyl)isoindolin-1-one]",,< 100,
"CN1C[C@@H](NC(=O)c2cc(Cl)ccn2)C[C@@H](n2c(-c3ccccc3OCCO)nc3cnc(-c4ncccn4)cc32)C1 [Example 165, 4-chloro-N-((3S,5R)-5-(2-(2-(2-hydroxyethoxy)phenyl)-6-(pyrimidin-2-yl)-1H-imidazo[4,5-c]pyridin-1-yl)-1-methylpiperidin-3-yl)picolinamide]",< 100,,
"CN1C[C@@H](NC(=O)c2cc(F)ccc2F)C[C@@H](n2c(-c3ccccc3F)nc3cnc(-c4nc[nH]n4)cc32)C1 [Example 152, 2,5-difluoro-N-((3S,5R)-5-(2-(2-fluorophenyl)-6-(1H-1,2,4-triazol-3-yl)-1H-imidazo[4,5-c]pyridin-1-yl)-1-methylpiperidin-3-yl)benzamide]",100 to 500,,
